The text below walks through data of patent US20240390508A1, “HUMAN TRANSFERRIN RECEPTOR BINDING PEPTIDE-DRUG CONJUGATE” (priority 2021, published 2024).

SMILES strings stand for the structures. Where only a bound is given, the exact number is not on record here.

This assay addresses transferrin receptor (hTfR) (Homo sapiens, UniProt P02786). Kind of assay: Intermolecular interaction evaluation test between transferrin receptor (hTfR) and peptide-nucleic acid conjugate using surface plasmon resonance (SPR). Format: binding. The protocol:
Intermolecular interaction evaluation test between transferrin receptor (hTfR) and peptide using surface plasmon resonance (SPR)
The various synthesized peptide-nucleic acid conjugates were tested for intermolecular interaction by surface plasmon resonance (SPR) of the peptide-nucleic acid conjugate with transferrin receptor (hTfR) using the method shown below. The specific test method is shown below.
NTA sensor chip (Global Life Science Technologies Japan Co., Ltd.) was inserted into Biacore T200 (Global Life Science Technologies Japan Co., Ltd.), prime operation was performed three times with running buffer: 10 mM HEPES pH 8.0 (Nacalai Tesque Co., Ltd.), 150 mM NaCl (Nacalai Tesque Co., Ltd.), 0.05% Tween 20 (Nacalai Tesque Co., Ltd.), 0.1% BSA (SIGMA-ALDRICH), and 1.0% DMSO (FUJIFILM Wako Pure Chemical Corporation), and equilibrated at a flow rate of 30 μL/min. 350 mM EDTA solution was reacted for 60 seconds at a flow rate of 10 μL/min, 0.5 mM NiCl2 solution (Kishida Chemical) was reacted for 60 seconds at a flow rate of 10 μL/min, and the NTA sensor chip was washed with 3 mM EDTA solution (Nacalai Tesque Co., Ltd.) for 60 seconds at a flow rate of 10 μL/min. After mixing 50 μL each of […] EDC solution (Global Life Science Technologies Japan Co., Ltd.) and […] NHS solution (Global Life Science Technologies Japan Co., Ltd.), the mixture was reacted for 420 seconds at a flow rate of 10 μL/min. 150 μL of a 0.5 μM hTfR solution was prepared by diluting with a running buffer and reacted for 300 seconds at a flow rate of 10 μL/min to immobilize hTfR on the NTA sensor chip. After immobilization, capping was performed by reacting with a 1.0 M ethanolamine aqueous solution (Global Life Science Technologies Japan Co., Ltd.) at a flow rate of 10 μL/min for 420 seconds. A peptide-nucleic acid conjugate solution adjusted to 10 mM in DMSO solution was diluted with running buffer to a final concentration of 10 μM peptide-nucleic acid conjugate solution, and 100 nM, 50 nM, 25 nM, 10 nM, 5 nM peptide-nucleic acid conjugate solutions were prepared. Using the aforementioned samples, the kinetics of the peptide against hTfR was obtained by SPR measurement.
The kinetics evaluation model was Single Cycle Kinetics, and curve fitting was performed using Biacore T200 Evaluation Software Version 3.0 (Global Life Science Technologies Japan Co., Ltd.). The obtained sensorgram was subjected to curve fitting using the least squares method, and the binding of the peptide-nucleic acid conjugate to hTfR was evaluated by determining the KD value.
Background: In SPR one partner is held on a chip, and binding of the other changes the refractive index at the surface.

transferrin receptor (hTfR), sequence (P02786 whole entry): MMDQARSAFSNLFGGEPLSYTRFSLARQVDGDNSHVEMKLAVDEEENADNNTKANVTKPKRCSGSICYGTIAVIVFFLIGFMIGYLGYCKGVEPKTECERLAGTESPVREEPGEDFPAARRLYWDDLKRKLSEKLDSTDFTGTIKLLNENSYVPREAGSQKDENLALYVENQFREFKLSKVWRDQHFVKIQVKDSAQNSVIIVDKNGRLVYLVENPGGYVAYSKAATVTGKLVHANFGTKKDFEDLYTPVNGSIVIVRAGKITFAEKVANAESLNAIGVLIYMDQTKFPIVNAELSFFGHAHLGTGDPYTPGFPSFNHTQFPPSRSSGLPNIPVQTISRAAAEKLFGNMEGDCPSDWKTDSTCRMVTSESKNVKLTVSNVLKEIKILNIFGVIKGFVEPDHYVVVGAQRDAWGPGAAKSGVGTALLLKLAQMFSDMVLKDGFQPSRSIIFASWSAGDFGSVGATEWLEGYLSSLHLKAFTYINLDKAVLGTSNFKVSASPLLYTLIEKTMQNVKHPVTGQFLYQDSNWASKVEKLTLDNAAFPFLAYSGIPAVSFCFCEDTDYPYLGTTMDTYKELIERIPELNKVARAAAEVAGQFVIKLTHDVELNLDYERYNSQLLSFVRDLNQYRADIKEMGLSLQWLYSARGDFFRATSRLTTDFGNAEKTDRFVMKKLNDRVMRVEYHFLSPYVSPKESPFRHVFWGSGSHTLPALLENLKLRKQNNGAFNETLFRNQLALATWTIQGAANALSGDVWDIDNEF

In general, Kd refers to the concentration at which binding is half-saturated. A lower Kd goes with tighter binding. Regarding `CC[C@H](C)[C@@H]1NC(=O)[C@H](Cc2ccc(O)cc2)NC(=O)[C@H](Cc2ccc(O)cc2)NC(=O)[C@H](CC(N)=O)NC(=O)[C@H](Cc2c[nH]c3ccccc23)NC(=O)[C@H](C(C)C)NC(=O)[C@H](Cc2ccccc2)N(C)C(=O)[C@H](C(C)C)NC(=O)[C@H](C)NC(=O)CSC[C@@H](C(=O)NCC(=O)N[C@@H](CCCCn2cc(CCC(=O)NCCOCCOCC(=O)N[C@@H](CCCNC(=N)N)C(=O)N[C@@H](CCCNC(=N)N)C(=O)N[C@@H](CCCNC(=N)N)C(=O)NCC(=O)N3C[C@@H](COP(=O)(N(C)C)N4C[C@@H](COP(=O)(N(C)C)N5C[C@@H](COP(=O)(N(C)C)N6C[C@@H](COP(=O)(N(C)C)N7C[C@@H](COP(=O)(N(C)C)N8C[C@@H](COP(=O)(N(C)C)N9C[C@@H](COP(=O)(N(C)C)N%10C[C@@H](COP(=O)(N(C)C)N%11C[C@@H](COP(=O)(N(C)C)N%12C[C@@H](COP(=O)(N(C)C)N%13C[C@@H](COP(=O)(N(C)C)N%14C[C@@H](COP(=O)(N(C)C)N%15C[C@@H](COP(=O)(N(C)C)N%16C[C@@H](COP(=O)(N(C)C)N%17C[C@@H](COP(=O)(N(C)C)N%18C[C@@H](COP(=O)(N(C)C)N%19C[C@@H](COP(=O)(N(C)C)N%20C[C@@H](COP(=O)(N(C)C)N%21C[C@@H](COP(=O)(N(C)C)N%22C[C@@H](COP(=O)(N(C)C)N%23C[C@@H](COP(=O)(N(C)C)N%24C[C@@H](COP(=O)(N(C)C)N%25C[C@@H](COP(=O)(N(C)C)N%26C[C@@H](COP(=O)(N(C)C)N%27C[C@@H](COP(=O)(N(C)C)N(C)CC(N)=O)O[C@@H](n%28cnc%29c(=O)[nH]c(N)nc%29%28)C%27)O[C@@H](n%27cnc%28c(=O)[nH]c(N)nc%28%27)C%26)O[C@@H](n%26ccc(N)nc%26=O)C%25)O[C@@H](n%25ccc(N)nc%25=O)C%24)O[C@@H](n%24cnc%25c(N)ncnc%25%24)C%23)O[C@@H](n%23cnc%24c(N)ncnc%24%23)C%22)O[C@@H](n%22cnc%23c(N)ncnc%23%22)C%21)O[C@@H](n%21ccc(N)nc%21=O)C%20)O[C@@H](n%20ccc(N)nc%20=O)C%19)O[C@@H](n%19cc(C)c(=O)[nH]c%19=O)C%18)O[C@@H](n%18ccc(N)nc%18=O)C%17)O[C@@H](n%17cnc%18c(=O)[nH]c(N)nc%18%17)C%16)O[C@@H](n%16cnc%17c(=O)[nH]c(N)nc%17%16)C%15)O[C@@H](n%15ccc(N)nc%15=O)C%14)O[C@@H](n%14cc(C)c(=O)[nH]c%14=O)C%13)O[C@@H](n%13cc(C)c(=O)[nH]c%13=O)C%12)O[C@@H](n%12cnc%13c(N)ncnc%13%12)C%11)O[C@@H](n%11ccc(N)nc%11=O)C%10)O[C@@H](n%10ccc(N)nc%10=O)C9)O[C@@H](n9cc(C)c(=O)[nH]c9=O)C8)O[C@@H](n8cnc9c(=O)[nH]c(N)nc98)C7)O[C@@H](n7cnc8c(N)ncnc87)C6)O[C@@H](n6cnc7c(N)ncnc76)C5)O[C@@H](n5cnc6c(N)ncnc65)C4)O[C@@H](n4cc(C)c(=O)[nH]c4=O)C3)nn2)C(N)=O)NC(=O)[C@H](Cc2ccc(O)cc2)N(C)C(=O)[C@H](Cc2ccc(O)cc2)NC(=O)[C@H](CCCNC(=N)N)NC(=O)[C@H](CCCNC(=N)N)NC(=O)[C@H]([C@@H](C)CC)NC1=O` (some centres unmarked) [Example 60], the Kd was less than 100 nM.

The molecule `CC[C@H](C)[C@@H]1NC(=O)[C@H](Cc2ccc(O)cc2)NC(=O)[C@H](Cc2ccc(O)cc2)NC(=O)[C@H](CC(N)=O)NC(=O)[C@H](Cc2c[nH]c3ccccc23)NC(=O)[C@H](C(C)C)NC(=O)[C@H](Cc2ccccc2)N(C)C(=O)[C@H](C(C)C)NC(=O)[C@H](C)NC(=O)CSC[C@@H](C(=O)NCC(=O)N[C@@H](CCCCn2cc(CCC(=O)NCCOCCOCC(=O)N[C@@H](CCCCN)C(=O)N[C@@H](CCCCN)C(=O)N[C@@H](CCCCN)C(=O)NCC(=O)N3C[C@@H](COP(=O)(N(C)C)N4C[C@@H](COP(=O)(N(C)C)N5C[C@@H](COP(=O)(N(C)C)N6C[C@@H](COP(=O)(N(C)C)N7C[C@@H](COP(=O)(N(C)C)N8C[C@@H](COP(=O)(N(C)C)N9C[C@@H](COP(=O)(N(C)C)N%10C[C@@H](COP(=O)(N(C)C)N%11C[C@@H](COP(=O)(N(C)C)N%12C[C@@H](COP(=O)(N(C)C)N%13C[C@@H](COP(=O)(N(C)C)N%14C[C@@H](COP(=O)(N(C)C)N%15C[C@@H](COP(=O)(N(C)C)N%16C[C@@H](COP(=O)(N(C)C)N%17C[C@@H](COP(=O)(N(C)C)N%18C[C@@H](COP(=O)(N(C)C)N%19C[C@@H](COP(=O)(N(C)C)N%20C[C@@H](COP(=O)(N(C)C)N%21C[C@@H](COP(=O)(N(C)C)N%22C[C@@H](COP(=O)(N(C)C)N%23C[C@@H](COP(=O)(N(C)C)N%24C[C@@H](COP(=O)(N(C)C)N%25C[C@@H](COP(=O)(N(C)C)N%26C[C@@H](COP(=O)(N(C)C)N%27C[C@@H](COP(=O)(N(C)C)N(C)CC(N)=O)O[C@@H](n%28cnc%29c(=O)[nH]c(N)nc%29%28)C%27)O[C@@H](n%27cnc%28c(=O)[nH]c(N)nc%28%27)C%26)O[C@@H](n%26ccc(N)nc%26=O)C%25)O[C@@H](n%25ccc(N)nc%25=O)C%24)O[C@@H](n%24cnc%25c(N)ncnc%25%24)C%23)O[C@@H](n%23cnc%24c(N)ncnc%24%23)C%22)O[C@@H](n%22cnc%23c(N)ncnc%23%22)C%21)O[C@@H](n%21ccc(N)nc%21=O)C%20)O[C@@H](n%20ccc(N)nc%20=O)C%19)O[C@@H](n%19cc(C)c(=O)[nH]c%19=O)C%18)O[C@@H](n%18ccc(N)nc%18=O)C%17)O[C@@H](n%17cnc%18c(=O)[nH]c(N)nc%18%17)C%16)O[C@@H](n%16cnc%17c(=O)[nH]c(N)nc%17%16)C%15)O[C@@H](n%15ccc(N)nc%15=O)C%14)O[C@@H](n%14cc(C)c(=O)[nH]c%14=O)C%13)O[C@@H](n%13cc(C)c(=O)[nH]c%13=O)C%12)O[C@@H](n%12cnc%13c(N)ncnc%13%12)C%11)O[C@@H](n%11ccc(N)nc%11=O)C%10)O[C@@H](n%10ccc(N)nc%10=O)C9)O[C@@H](n9cc(C)c(=O)[nH]c9=O)C8)O[C@@H](n8cnc9c(=O)[nH]c(N)nc98)C7)O[C@@H](n7cnc8c(N)ncnc87)C6)O[C@@H](n6cnc7c(N)ncnc76)C5)O[C@@H](n5cnc6c(N)ncnc65)C4)O[C@@H](n4cc(C)c(=O)[nH]c4=O)C3)nn2)C(N)=O)NC(=O)[C@H](Cc2ccc(O)cc2)N(C)C(=O)[C@H](Cc2ccc(O)cc2)NC(=O)[C@H](CCCNC(=N)N)NC(=O)[C@H](CCCNC(=N)N)NC(=O)[C@H]([C@@H](C)CC)NC1=O` (some centres unmarked) [Example 61] registered a Kd of less than 100 nM.
